{
  "source": "patent US9180155B2",
  "about": "“Compositions from Nigella sativa” (Bio Nexus, Ltd, priority 2013, dated 2015)",
  "key": {"[1]": {"tested_on": "LPS-stimulated macrophages", "conditions": "published results, El-Mahmoudy 2002; cited from earlier work"}, "[2]": {"tested_on": "IL-6 secretion in 3T3-L1 adipocytes", "assay": "IL-6 secretion in t10-CLA-stimulated 3T3-L1 adipocytes", "assay_type": "cell-based, murine", "conditions": "t10-CLA 50 μM control = 100; μg TQ equivalents/mL: Thymoquinone 5.0, NS8 0.11, NS9 0.99, NS10 0.012, NSSpent#2 0.0005; NSSpent#1 5 μg/mL; listed as TQ", "procedure": "The 3T3-L1 murine fibroblast model as used in Example 4 was used in this experiments. Test materials were added four hours prior to the addition of t10-CLA at a concentration of 50 μM. Following overnight incubation, the supernatant media were sampled for determination of IL-6 and adiponectin. The IL-6 secreted into the medium in response to […] stimulation was quantified using the Quantikine® Mouse IL-6 Immunoassay kit with no modifications (R&D Systems, Minneapolis, Minn.). […] All supernatant media samples were diluted 1:30 for quantification. Test materials and were assayed in duplicate, while solvent controls were replicated eight times. IL-6 and adiponectin secretion were represented relative to the IL-6 and adiponectin secretion of the t10-CLA only controls as the IL-6 and adiponectin index and differences among the means were analyzed by the student's t-test assuming a five percent probability of a type I error (Excel; Microsoft, Redmond, Wash.)."}, "[3]": {"assay": "DPPH free radical scavenging (antioxidant) assay", "conditions": "computed on basis of TQ content; inactive samples tested up to 1000 μg/mL", "procedure": "Antioxidant activity was determined utilizing 2,2-diphenyl-1-picrylhydrazyl (DPPH), which is a stable radical. The odd electron in the DPPH free radical gives a strong absorption maximum at 550 nm and is purple in color. The color turns from purple to yellow as the molar absorption of the DPPH radical at 550 nm is reduced when the odd electron of DPPH radical becomes paired with hydrogen from a free radical scavenging antioxidant to form the reduced DPPH-H. The test samples were dissolved in methanol containing 1% dimethyl sulfoxide and added to microtiter wells in 100 μL aliquots to 100 μL of a 100 μM DPPH solution in methanol. Readings were taken at 10, 30 and 60 minutes following the addition of the test material. Percent inhibition of the DPPH radical by the test material was computed relative to the inhibition of the DPPH radical by the vitamin E analog trolox and tabulated as μmol trolox/g test material."}, "Caco-2 monolayers": {"tested_on": "Caco-2 monolayers", "assay": "t10-CLA-induced loss of TEER in Caco-2 monolayers", "assay_type": "cell-based, human", "conditions": "t10-CLA 50 μM control = 100; μg TQ equivalents/mL: Thymoquinone 5.0, NS8 0.11, NS9 0.99, NS10 0.012, NSSpent#2 0.0005; NSSpent#1 5 μg/mL; listed as TQ", "text": "The protocol for growing and differentiation the human Caco-2 colon andenocarcinoma cells was a modification of Protocol 3 as described by Yamashita et al. [[…]., and Furuyama, Y. 2002) New and better protocols for a short-term Caco-2 cell culture system, J Pharm Sci 91, 669-679]. Caco-2 Human Colon Adenocarcinoma cells were obtained from ATCC (Rockville, Md.; catalog #HTB-37) and maintained in a growth media: DMEM (Dulbecco's Modified Eagles Medium 1×) containing L-glutamine, glucose; Cellgro catalog #35-010CV with the following additions: (1) Penicillin (5,000 IU/mL)/Streptomycin (5,000 μg/mL) Cellgro catalog #30-001C1, (2) 10% FBS-Fetal Bovine Serum, Characterized; Hyclone catalog #SH30071.3, and (3) 1% NEAA-Non Essential Amino Acids; Cellgro catalog #25-025-CI; cells were cultured at 37 C in a humidified air-5% CO2 atmosphere in T175 flasks. BIOCOAT^R HTS Caco-2 Assay System kits (Becton Dickinson, N.J.; catalog #354801) consisting of 24-well fibrillar collagen coated inserts and feeder trays were used in all experiments and plated as follows. Media was removed from the T175 flasks and cells were washed with 10 mLs PBS (phosphate buffered saline 1× without Ca^++, without Mg^++; Cellgro #25-053-CI). […]"}, "3T3-L1 adipocytes": {"tested_on": "3T3-L1 adipocytes", "assay": "Lipolysis (glycerol assay) in 3T3-L1 adipocytes", "assay_type": "cell-based, murine", "conditions": "forskolin 82 μg/mL, test materials 5 μg/mL (FIG. 9)", "procedure": "Culture and treatment of 3T3-L1 adipocytes and C2C12 myocytes was as described in Example 5. Concentrations of the forskolin positive control and test materials are listed in FIG. 9 for adipocytes and FIG. 10 for myocytes. Free fatty acid release from 3T3-L1 adipocytes or C2C12 myocytes was quantified by measuring glycerol secretion into the medium. Glycerol was measured spectrophotometrically using the Free Glycerol Determination Kit ([…], Sigma) and an EL 312e Microplate BIO-KINETICS spectrophotometer (BioTek, Winooski, Vt.). Glycerol release from adipocytes and myocytes was expressed, respectively, as the percent increase in free fatty acid secretion (FIG. 9) and relative glycerol content (glycerol index FIG. 10) ±95% confidence intervals of eight observations for one of three representative experiments."}},
  "data": [
    {"molecule": "CC1=CC(=O)C(C(C)C)=CC1=O", "note": "[Thymoquinone, thymoquinone]", "values": [
      {"measurement": "IC50 for NO inhibition in LPS-stimulated macrophages", "setting": "[1]", "result": "1.4 to 2.8", "unit": "µg/mL"},
      {"measurement": "IL-6 Index", "setting": "[2]", "result": "inhibited IL-6 secretion"},
      {"measurement": "DPPH Reducing Activity", "setting": "[3]", "result": 45.2, "unit": "μmol Trolox/g TQ"},
      {"measurement": "Relative Loss of TEER", "setting": "Caco-2 monolayers", "result": "inhibited loss of TEER"},
      {"measurement": "free fatty acid release in adipocytes", "setting": "3T3-L1 adipocytes", "result": "induced free fatty acid release"}
    ]}
  ]
}
